Where two headings read alike, the source gives them in different places.
What was measured:
[1] = molecular target: T1, E. coli peptide deformylase (PDFEc) (Escherichia coli, UniProt P0A6K3); test: Slow-binding inhibition of PDFEc, kobs as a function of inhibitor concentration; assay type: biochemical
[2] = molecular target: T1, E. coli peptide deformylase (PDFEc); assay type: biochemical; conditions: for Initial rate: AMT 500 µM; for remaining activity at 500 µM: read-out: % of control, AMT 500 µM
[3] = solvent dimethylformamide, 1 week post
[4] = solvent ethanol, more than 2 days incubation

T1 sequence (P0A6K3 whole entry): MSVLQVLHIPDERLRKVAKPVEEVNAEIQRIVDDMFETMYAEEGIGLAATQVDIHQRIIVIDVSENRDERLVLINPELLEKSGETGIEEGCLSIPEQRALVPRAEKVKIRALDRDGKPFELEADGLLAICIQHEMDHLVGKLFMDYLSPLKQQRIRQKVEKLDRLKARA

In the case of `Nc1nnc(S)s1` [AMT, 2-amino-5-mercapto-1,3,4-thiadiazole], the “enhancement of apparent binding affinity by the slow-binding step (Ki / Ki^*)” value [1] is reported as “about 30 fold”, the “initial rate of the enzyme catalyzed reaction versus control” value ([2]; 500 µM AMT incubated in DMF for 30 min) is reported as “barely lower than that of the control” and the Initial rate ([2]; solvent acetonitrile, more than 2 days incubation) is reported as 16.3 mOD min^−1. For the same compound, the Initial rate [2, 3] was 7.9 mOD min^−1, the Initial rate ([2]; solvent dimethylformamide, tested immediately) was 17.0 mOD min^−1 and the Initial rate ([2]; solvent dimethylsulfoxide, more than 2 days incubation) was 15.9 mOD min^−1. For the same compound, the Initial rate [2, 4] was 16.9 mOD min^−1, the “inhibitory effect on PDFEc” value ([2]; AMT freshly prepared in DMF, or dissolved in any other solvent and aged at 25 °C for any length of time) was “No inhibitory effect” and the “inhibition of PDFEc” value ([2]; AMT incubated with 0.06% H2O2 in buffer) was “no inhibition”. It also gave a remaining activity at 500 µM [2, 3] of 47% and a remaining activity at 500 µM [2, 4] of 100%.

— PMC2855385 (Biochimica et biophysica acta, 2009)
